Legend:
PPARγ LBD = target: T1, PPARγ LBD (Homo sapiens, UniProt P37231); test: SPR on immobilized PPARγ LBD; type: binding
T1 construct: Recombinant human PPARγ-LBD, consisting of the region 195–477 of PPARγ; purchased Bertin-Pharma
T1 sequence (P37231 195-477 isoform P37231-2): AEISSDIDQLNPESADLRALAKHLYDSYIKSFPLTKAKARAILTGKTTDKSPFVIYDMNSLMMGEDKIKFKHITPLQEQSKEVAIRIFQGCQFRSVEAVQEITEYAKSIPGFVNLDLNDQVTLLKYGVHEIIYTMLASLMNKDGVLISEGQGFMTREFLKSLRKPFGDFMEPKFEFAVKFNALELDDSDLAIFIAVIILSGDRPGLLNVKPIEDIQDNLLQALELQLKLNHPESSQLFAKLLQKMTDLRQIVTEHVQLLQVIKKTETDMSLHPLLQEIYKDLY
Method: Conversely, no affinity of the diterpene towards Hsp60 was observed (Fig. 2c).
(§1) SPR analyses were carried out on a BIACORE 3000 instrument (GE-Healthcare). PPARα, PPARγ, PPARδ and HSP60 surfaces were prepared on research−grade CM5 sensor chips (GE Healthcare). Proteins (100 μg/ml in 10 mM CH3COONa, pH 5.0) were immobilized using a standard amine−coupling protocol, to obtain densities of 3–5 kRU. Testing compounds were dissolved in 100% DMSO to obtain 4 mM solutions, and then diluted in PBS containing variable amounts of DMSO, achieving a final DMSO concentration of 0.1%. For each molecule a five−point concentration series (25 nM, 65 nM, 150 nM, 400 nM, 1 μM) was set up. SPR experiments and data elaboration were carried out as reported elsewhere.

PPARδ = target: T2, PPARδ (Homo sapiens, UniProt Q03181); test: SPR on immobilized PPARδ; type: binding
T2 construct: purchased Tebu-Bio
T2 sequence (Q03181 1-441): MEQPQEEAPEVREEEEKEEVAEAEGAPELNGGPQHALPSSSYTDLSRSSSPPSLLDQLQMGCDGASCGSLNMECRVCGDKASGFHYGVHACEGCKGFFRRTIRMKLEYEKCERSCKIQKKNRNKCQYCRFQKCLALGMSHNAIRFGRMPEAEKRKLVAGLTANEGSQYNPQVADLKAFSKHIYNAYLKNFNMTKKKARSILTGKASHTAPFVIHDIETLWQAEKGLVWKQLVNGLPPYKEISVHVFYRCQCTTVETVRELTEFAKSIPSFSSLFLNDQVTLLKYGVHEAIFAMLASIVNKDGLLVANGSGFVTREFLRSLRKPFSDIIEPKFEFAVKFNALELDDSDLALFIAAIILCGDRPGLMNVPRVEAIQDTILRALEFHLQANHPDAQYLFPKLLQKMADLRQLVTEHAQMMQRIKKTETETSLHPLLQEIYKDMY
Method: In order to evaluate if 1 acts as a selective ligand of PPARγ, SPR analyses were also carried out on immobilized PPARα and PPARδ, two proteins structurally and functionally related to PPARγ[23][24].
as §1

Q: Which results are given for `C=C1C(=O)C23CCC4C(C(=O)OC)CC(O)CC4(C)C2CCC1C3` (centres unmarked) [Compound 1, 15-ketoatractyligenin methyl ester]?
A: Kd (PPARγ LBD): 39.2 ± 3.9 nM; binding to PPARδ (PPARδ): no significant binding
